Data published in patent US5523314A, “Compounds useful as hypoglycemic agents and for treating Alzheimer's disease” (priority 1994, dated 1996).
Where two headings read alike, the source gives them in different places.

Target: T1, Human liver cathepsin D (Homo sapiens, UniProt P07339)
T1 construct: purchased Athens Research and Technology, Athens, Ga; host or cells: human liver
Assay: Cathepsin D inhibition, fluorometric assay (Tables 5 and 6)
Type: biochemical
Settings: for inhibition at 4.15 µg/mL (stock): Compound Stock Concentration 4.15 μg/ml; for inhibition at 8.3 µg/mL (stock): Compound Stock Concentration 8.3 μg/ml; for ability to inhibit cathepsin D: compared to structurally similar compounds known in the art, in words; for inhibition at 10 µg/mL (stock): Compound Stock Concentration 10.0 μg/ml
Method: Human liver cathepsin D (Athens Research and Technology, Athens, Ga.) was diluted in assay buffer, 200 mM NaOAc, pH 4.5, 150 mM NaCl to 500 ng/mL and then 100 μL of this cathepsin D solution was added to each well of a 96 well plate with the exception of control wells which received just 100 μL of assay buffer. […] Blank and enzyme control wells each received 5 μL of the DMSO vehicle.
After incubation at 37° C. for 30 minutes, cathepsin D activity was terminated by the addition of 100 μL per well of 400 mU/mL microsomal leucine aminopeptidase (EC 3.4.11.2, Sigma, St. Louis, Mo.) in 1M Tris-HCl, pH 8.0.
Following a two hour incubation at 37° C., to allow the aminopeptidase to release the fluorophore, 7-amido-4-methylcoumarin (AMC) from the products of cathepsin D cleavage, the plates were again analyzed in the fluorometer. In order to check for potential false positives, i.e., inhibitors of microsomal leucine aminopeptidase, residual aminopeptidase activity was monitored directly in each well by the addition of 20 μL/well of 2.5 mM Leu-pNA (Bachem Biosciences, Philadelphia, Pa.) in 10% DMSO.

T1 sequence (P07339 169-412 limits assumed): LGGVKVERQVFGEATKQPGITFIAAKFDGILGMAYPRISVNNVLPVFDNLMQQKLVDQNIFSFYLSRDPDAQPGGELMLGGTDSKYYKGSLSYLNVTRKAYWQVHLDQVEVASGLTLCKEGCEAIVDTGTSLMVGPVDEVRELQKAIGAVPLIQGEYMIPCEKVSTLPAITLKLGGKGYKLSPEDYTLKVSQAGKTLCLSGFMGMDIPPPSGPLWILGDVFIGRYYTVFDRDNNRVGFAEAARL
T1 sequence (P07339 65-161 limits assumed): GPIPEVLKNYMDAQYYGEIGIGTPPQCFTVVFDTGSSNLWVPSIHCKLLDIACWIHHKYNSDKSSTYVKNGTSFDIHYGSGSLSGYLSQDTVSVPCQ

Compound | IC50 [µM] | inhibition at 4.15 µg/mL (stock) [%] | inhibition at 8.3 µg/mL (stock) [%] | further results
CCOc1cc(C=C2SC(=S)N(N(C)C)C2=O)ccc1O [Example 90, 5-[(3-ethoxy-4-hydroxyphenyl)methylene]-2-thioxo-3-dimethylamino-4-thiazolidinone] | 7.7 | 79 | 92 | ability to inhibit cathepsin D: surprising ability to inhibit cathepsin D levels
CCCCCCCOc1ccc(C=C2SC(=S)N(N(C)C)C2=O)cc1 [Example 83, 5-[(4-heptoxyphenyl)methylene]-2-thioxo-3-dimethylamino-4-thiazolidinone] | – | 47 | – | –
O=C1NC(=S)SC1=Cc1cccc2ccccc12 [Example 75, 5-[(1-naphthyl)methylene]-2-thioxo-4-thiazolidinone] | – | – | – | inhibition at 10 µg/mL (stock): 43%
CN1C(=O)C(=Cc2ccc(O)c(C(C)(C)C)c2)SC1=S [Example 92, 5-[[3-(1,1-dimethylethyl)-4-hydroxyphenyl]methylene]-2-thioxo-3-methyl-4-thiazolidinone] | 3.9 | 74 | – | ability to inhibit cathepsin D: surprising ability to inhibit cathepsin D levels
CCOc1cc(C=C2SC(=S)N(CC(=O)O)C2=O)cc(CSc2ccccc2)c1O [Example 74, 5-[[3-ethoxy-4-hydroxy-5-(methylthiophenyl)phenyl]methylene]-4-oxo-2-thioxo-3-thiazolidine acetic acid] | – | – | 95 | IC50 (50% inhibition of cathepsin D): 5.8 µM; ability to inhibit cathepsin D: surprising ability to inhibit cathepsin D levels
CC(=C1SC(=S)NC1=O)c1ccc2ccccc2c1 [Example 76, 5-[(2-naphthyl)methylmethylene]-2-thioxo-4-thiazolidinone] | – | – | – | inhibition at 10 µg/mL (stock): 32%
CCCCCCCOc1ccc(C=C2SC(=S)N(N)C2=O)cc1OC [Example 80, 5-[(3-methoxy-4-heptoxyphenyl)methylene]-2-thioxo-3-amino-4-thiazolidinone] | 47 | – | 33 | –
CN(C)c1ccc(C=C2SC(=S)NC2=O)cc1 [Example 82, 5-[[4-(dimethylamino)phenyl]methylene]-2-thioxo-4-thiazolidinone] | – | – | – | inhibition at 10 µg/mL (stock): 73.5%
COc1c(C(C)(C)C)cc(C=C2SC(=S)NC2=O)cc1C(C)(C)C [Example 87, 5-[[3,5-bis(1,1-dimethylethyl)-4-methoxyphenyl]methylene]-2-thioxo-4-thiazolidinone] | 2.2 | – | – | –
CCCCOc1ccc(C=C2SC(=S)N(N(C)C)C2=O)cc1OCCCC [Example 94, 5-[(3,4-dibutoxyphenyl)methylene]-2-thioxo-3-dimethylamino-4-thiazolidinone] | – | 48 | – | –
CC(=C1SC(=S)NC1=O)c1cccc(Oc2ccccc2)c1 [Example 78, 5-[(3-phenoxyphenyl)methylmethylene]-2-thioxo-4-thiazolidinone] | 22.1 | 41 | – | –
CCOc1cc(C=C2SC(=S)NC2=O)cc(CSc2ccccc2)c1O [Example 72] | – | 88 | 96 | IC50 (50% inhibition of cathepsin D): 1.7 µM
CCOc1cc(C=C2SC(=S)N(N(C)C)C2=O)cc(CSc2ccccc2)c1O [Example 89] | – | – | 71 | IC50 (50% inhibition of cathepsin D): 9.2 µM
C=CCN1C(=O)C(=Cc2ccc(OCCCCCCC)c(OC)c2)SC1=S [Example 95, 5-[(3-methoxy-4-heptoxyphenyl)methylene]-2-thioxo-3-(2-propenyl)-4-thiazolidinone] | – | – | 36 | –
CCOc1cc(C=C2SC(=S)N(C)C2=O)ccc1O [Example 88, 5-[(3-ethoxy-4-hydroxyphenyl)methylene]-2-thioxo-3-methyl-4-thiazolidinone] | 11.2 | 67 | 82 | ability to inhibit cathepsin D: surprising ability to inhibit cathepsin D levels
CCOc1cc(C=C2SC(=S)N(C3CCCCC3)C2=O)ccc1O [Example 84, 5-[(3-ethoxy-4-hydroxyphenyl)methylene]-2-thioxo-3-cyclohexyl-4-thiazolidinone] | – | 51 | – | –
